Measurements as given in the supplement of paper PMC10307832.

What was measured:
Test in all cases: relative viability (nuclei count vs DMSO), 5 days (fraction); higher = more cells survive
BEN = system: BEN
Outline: (§1)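 The day after seeding in 1536-well plates, lung cancer cell lines were treated by pin tool with a single drug, or with a fixed anchor-drug dose together with five library-drug doses (not always all listed) in √10 steps. After 5 days, a combined fix-and-stain solution (final 0.05% Triton X-100, 1% formaldehyde, 1 ug/ml Hoechst) was added. Nuclei counted on 4× images gave relative viability as treated counts over vehicle counts, reported as the median of duplicate plates.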

EKVX = system: EKVX
Outline: as §1

HARA = system: HARA
Outline: as §1

HCC-366 = system: HCC-366
Outline: as §1

HCC-827 = system: HCC-827
Outline: as §1

LOU-NH91 = system: LOU-NH91
Outline: as §1

NCI-H1355 = system: NCI-H1355
Outline: as §1

NCI-H1437 = system: NCI-H1437
Outline: as §1

NCI-H1734 = system: NCI-H1734
Outline: as §1

NCI-H1792 = system: NCI-H1792
Outline: as §1

NCI-H1993 = system: NCI-H1993
Outline: as §1

NCI-H2009 = system: NCI-H2009
Outline: as §1

NCI-H2087 = system: NCI-H2087
Outline: as §1

NCI-H2170 = system: NCI-H2170
Outline: as §1

NCI-H2405 = system: NCI-H2405
Outline: as §1

NCI-H647 = system: NCI-H647
Outline: as §1

NCI-H661 = system: NCI-H661
Outline: as §1

SK-LU-1 = system: SK-LU-1
Outline: as §1

SK-MES-1 = system: SK-MES-1
Outline: as §1

Question: Which relative viability (BEN; first compound 0.01 µM) does the source give for `O=c1cc(N2CCOCC2)oc2c(-c3cccc4c3sc3ccccc34)cccc12` + C[C@@H](Oc1cc(-c2cnn(C3CCNCC3)c2)cnc1N)c1c(Cl)ccc(F)c1Cl [Crizotinib] (partner 1 µM) here?
Answer: The relative viability was 0.853.

Question: And the relative viability (BEN; first compound 0.03162 µM)?
Answer: The relative viability was 0.892.

Question: And the relative viability (BEN; first compound 0.1 µM)?
Answer: Its relative viability is 0.877.

Question: And the relative viability (BEN; first compound 0.3162 µM)?
Answer: The relative viability was 0.951.

Question: And the relative viability (BEN; first compound 1 µM)?
Answer: The relative viability was 0.893.

Question: And the relative viability (EKVX; first compound 0.01 µM)?
Answer: Its relative viability is 1.04.

Question: And the relative viability (EKVX; first compound 0.03162 µM)?
Answer: The relative viability was 0.881.

Question: And the relative viability (EKVX; first compound 0.1 µM)?
Answer: The relative viability was 1.18.

Question: And the relative viability (EKVX; first compound 0.3162 µM)?
Answer: Its relative viability is 0.915.

Question: What about the relative viability (EKVX; first compound 1 µM) of the same compound?
Answer: The relative viability was 0.995.

Question: And the relative viability (HARA; first compound 0.01 µM)?
Answer: Its relative viability is 0.996.

Question: And the relative viability (HARA; first compound 0.03162 µM)?
Answer: Its relative viability is 1.05.

Question: And the relative viability (HARA; first compound 0.1 µM)?
Answer: The relative viability was 1.26.

Question: What about the relative viability (HARA; first compound 0.3162 µM) of the same compound?
Answer: Its relative viability is 1.13.

Question: What about the relative viability (HARA; first compound 1 µM) of the same compound?
Answer: The relative viability was 0.988.

Question: And the relative viability (HCC-366; first compound 0.01 µM)?
Answer: Its relative viability is 0.457.

Question: And the relative viability (HCC-366; first compound 0.03162 µM)?
Answer: The relative viability was 0.506.

Question: And the relative viability (HCC-366; first compound 0.1 µM)?
Answer: The relative viability was 0.66.

Question: What about the relative viability (HCC-366; first compound 0.3162 µM) of the same compound?
Answer: Its relative viability is 0.471.

Question: What about the relative viability (HCC-366; first compound 1 µM) of the same compound?
Answer: Its relative viability is 0.598.

Question: What about the relative viability (HCC-827; first compound 0.01 µM) of the same compound?
Answer: Its relative viability is 0.918.

Question: What about the relative viability (HCC-827; first compound 0.03162 µM) of the same compound?
Answer: Its relative viability is 0.939.

Question: And the relative viability (HCC-827; first compound 0.1 µM)?
Answer: The relative viability was 0.873.

Question: What about the relative viability (HCC-827; first compound 0.3162 µM) of the same compound?
Answer: Its relative viability is 0.965.

Question: What about the relative viability (HCC-827; first compound 1 µM) of the same compound?
Answer: The relative viability was 0.956.

Question: And the relative viability (LOU-NH91; first compound 0.01 µM)?
Answer: Its relative viability is 0.705.

Question: What about the relative viability (LOU-NH91; first compound 0.03162 µM) of the same compound?
Answer: Its relative viability is 0.695.

Question: And the relative viability (LOU-NH91; first compound 0.1 µM)?
Answer: Its relative viability is 0.717.

Question: And the relative viability (LOU-NH91; first compound 0.3162 µM)?
Answer: Its relative viability is 0.738.

Question: And the relative viability (LOU-NH91; first compound 1 µM)?
Answer: The relative viability was 0.698.

Question: And the relative viability (NCI-H1355; first compound 0.01 µM)?
Answer: Its relative viability is 1.17.

Question: And the relative viability (NCI-H1355; first compound 0.03162 µM)?
Answer: Its relative viability is 1.12.

Question: What about the relative viability (NCI-H1355; first compound 0.3162 µM) of the same compound?
Answer: The relative viability was 1.11.

Question: And the relative viability (NCI-H1355; first compound 1 µM)?
Answer: The relative viability was 0.941.

Question: And the relative viability (NCI-H1437; first compound 0.01 µM)?
Answer: Its relative viability is 0.963.

Question: What about the relative viability (NCI-H1437; first compound 0.03162 µM) of the same compound?
Answer: The relative viability was 0.896.

Question: And the relative viability (NCI-H1437; first compound 0.1 µM)?
Answer: Its relative viability is 0.959.

Question: What about the relative viability (NCI-H1437; first compound 0.3162 µM) of the same compound?
Answer: Its relative viability is 0.915.

Question: What about the relative viability (NCI-H1437; first compound 1 µM) of the same compound?
Answer: The relative viability was 0.82.

Question: And the relative viability (NCI-H1734; first compound 0.01 µM)?
Answer: The relative viability was 0.766.

Question: What about the relative viability (NCI-H1734; first compound 0.03162 µM) of the same compound?
Answer: The relative viability was 0.678.

Question: And the relative viability (NCI-H1734; first compound 0.1 µM)?
Answer: Its relative viability is 0.699.

Question: What about the relative viability (NCI-H1734; first compound 0.3162 µM) of the same compound?
Answer: Its relative viability is 0.61.

Question: And the relative viability (NCI-H1734; first compound 1 µM)?
Answer: The relative viability was 0.642.

Question: And the relative viability (NCI-H1792; first compound 0.01 µM)?
Answer: The relative viability was 0.967.

Question: What about the relative viability (NCI-H1792; first compound 0.03162 µM) of the same compound?
Answer: The relative viability was 0.923.

Question: And the relative viability (NCI-H1792; first compound 0.1 µM)?
Answer: Its relative viability is 0.741.

Question: What about the relative viability (NCI-H1792; first compound 0.3162 µM) of the same compound?
Answer: The relative viability was 0.939.

Question: What about the relative viability (NCI-H1792; first compound 1 µM) of the same compound?
Answer: The relative viability was 0.95.

Question: And the relative viability (NCI-H1993; first compound 0.01 µM)?
Answer: The relative viability was 0.858.

Question: And the relative viability (NCI-H1993; first compound 0.03162 µM)?
Answer: Its relative viability is 0.93.

Question: And the relative viability (NCI-H1993; first compound 0.1 µM)?
Answer: The relative viability was 0.928.

Question: What about the relative viability (NCI-H1993; first compound 0.3162 µM) of the same compound?
Answer: The relative viability was 0.862.

Question: What about the relative viability (NCI-H1993; first compound 1 µM) of the same compound?
Answer: The relative viability was 0.943.

Question: And the relative viability (NCI-H2009; first compound 0.01 µM)?
Answer: Its relative viability is 1.03.

Question: And the relative viability (NCI-H2009; first compound 0.03162 µM)?
Answer: The relative viability was 0.921.

Question: And the relative viability (NCI-H2009; first compound 0.1 µM)?
Answer: Its relative viability is 1.02.

Question: What about the relative viability (NCI-H2009; first compound 0.3162 µM) of the same compound?
Answer: Its relative viability is 0.995.

Question: And the relative viability (NCI-H2009; first compound 1 µM)?
Answer: Its relative viability is 0.935.

Question: And the relative viability (NCI-H2087; first compound 0.01 µM)?
Answer: Its relative viability is 0.884.

Question: What about the relative viability (NCI-H2087; first compound 0.03162 µM) of the same compound?
Answer: The relative viability was 1.07.

Question: What about the relative viability (NCI-H2087; first compound 0.1 µM) of the same compound?
Answer: The relative viability was 0.84.

Question: What about the relative viability (NCI-H2087; first compound 0.3162 µM) of the same compound?
Answer: The relative viability was 0.682.

Question: And the relative viability (NCI-H2087; first compound 1 µM)?
Answer: Its relative viability is 0.838.

Question: And the relative viability (NCI-H2170; first compound 0.01 µM)?
Answer: Its relative viability is 1.24.

Question: What about the relative viability (NCI-H2170; first compound 0.03162 µM) of the same compound?
Answer: The relative viability was 1.17.

Question: And the relative viability (NCI-H2170; first compound 0.1 µM)?
Answer: The relative viability was 1.24.

Question: What about the relative viability (NCI-H2170; first compound 0.3162 µM) of the same compound?
Answer: The relative viability was 1.12.

Question: What about the relative viability (NCI-H2170; first compound 1 µM) of the same compound?
Answer: Its relative viability is 1.17.

Question: What about the relative viability (NCI-H2405; first compound 0.01 µM) of the same compound?
Answer: Its relative viability is 0.814.

Question: And the relative viability (NCI-H2405; first compound 0.03162 µM)?
Answer: Its relative viability is 0.856.

Question: And the relative viability (NCI-H2405; first compound 0.1 µM)?
Answer: The relative viability was 0.915.

Question: What about the relative viability (NCI-H2405; first compound 0.3162 µM) of the same compound?
Answer: The relative viability was 0.849.

Question: And the relative viability (NCI-H2405; first compound 1 µM)?
Answer: Its relative viability is 0.84.

Question: And the relative viability (NCI-H647; first compound 0.01 µM)?
Answer: The relative viability was 1.12.

Question: And the relative viability (NCI-H647; first compound 0.03162 µM)?
Answer: The relative viability was 1.23.

Question: What about the relative viability (NCI-H647; first compound 0.1 µM) of the same compound?
Answer: The relative viability was 1.08.

Question: What about the relative viability (NCI-H647; first compound 0.3162 µM) of the same compound?
Answer: Its relative viability is 0.949.

Question: And the relative viability (NCI-H647; first compound 1 µM)?
Answer: Its relative viability is 0.939.

Question: And the relative viability (NCI-H661; first compound 0.01 µM)?
Answer: The relative viability was 1.06.

Question: What about the relative viability (NCI-H661; first compound 0.03162 µM) of the same compound?
Answer: Its relative viability is 0.983.

Question: What about the relative viability (NCI-H661; first compound 0.1 µM) of the same compound?
Answer: The relative viability was 0.927.

Question: What about the relative viability (NCI-H661; first compound 0.3162 µM) of the same compound?
Answer: The relative viability was 0.817.

Question: And the relative viability (NCI-H661; first compound 1 µM)?
Answer: The relative viability was 0.92.

Question: What about the relative viability (SK-LU-1; first compound 0.03162 µM) of the same compound?
Answer: Its relative viability is 0.897.

Question: What about the relative viability (SK-LU-1; first compound 0.1 µM) of the same compound?
Answer: The relative viability was 0.828.

Question: What about the relative viability (SK-LU-1; first compound 0.3162 µM) of the same compound?
Answer: The relative viability was 0.993.

Question: What about the relative viability (SK-LU-1; first compound 1 µM) of the same compound?
Answer: The relative viability was 0.877.

Question: And the relative viability (SK-MES-1; first compound 0.01 µM)?
Answer: The relative viability was 0.965.

Question: And the relative viability (SK-MES-1; first compound 0.03162 µM)?
Answer: The relative viability was 0.991.

Question: And the relative viability (SK-MES-1; first compound 0.1 µM)?
Answer: Its relative viability is 1.01.

Question: And the relative viability (SK-MES-1; first compound 0.3162 µM)?
Answer: Its relative viability is 1.01.

Question: And the relative viability (SK-MES-1; first compound 1 µM)?
Answer: The relative viability was 1.04.
